Experimental data published in ChEMBL document CHEMBL1240320, “Antibacterial lysine analogs that target lysine riboswitches” (Nat Chem Biol, 2007).
Converted amounts (≈) assume the structure as drawn. The source made the active and inactive calls. The rule behind the calls is not given here.

Tests used:
[1] = tested on: Bacillus subtilis; experiment: Antibacterial activity against Bacillus subtilis 168 1A1 after 24 hrs by CLSI method; format: functional
[2] = molecular target: Nucleic Acid; experiment: Binding affinity to Bacillus subtilis 168 1A1 lysine riboswitch 179 lysc by in-line probing assay; format: nucleic-acid assay, Bacillus subtilis subsp. subtilis str. 168
[3] = tested on: Bacillus subtilis; experiment: Antibacterial activity against Bacillus subtilis 1A40 at 1 mM after 3 hrs by CLSI method; format: functional, organism-based
[4] = molecular target: Nucleic Acid; experiment: Binding affinity to Bacillus subtilis 168 1A1 lysine riboswitch 179 lysc; format: nucleic-acid assay, Bacillus subtilis subsp. subtilis str. 168
[5] = tested on: Bacillus subtilis; experiment: Antibacterial activity against L-4-oxalysine-resistant Bacillus subtilis 168 M2 assessed as inhibition of viable spore formation at 2 mM after 22 to 24 hrs; format: functional, subsp. subtilis str. 168 M2
[6] = tested on: Bacillus subtilis; experiment: Antibacterial activity against wild type Bacillus subtilis 168 1A1 assessed as inhibition of viable spore formation at 2 mM after 22 to 24 hrs; format: functional, subsp. subtilis str. 168 1A1
[7] = tested on: Bacillus subtilis; experiment: Antibacterial activity against Bacillus subtilis 168 1A1 at 100 uM after 24 hrs by CLSI method; format: functional, organism-based; settings: subsp. subtilis str. 168 1A1
[8] = molecular target: Nucleic Acid; experiment: Binding affinity to lysine riboswitch 179 lysc of Bacillus subtilis 168 M1 harboring G163A mutation in P4 motif; format: nucleic-acid assay, Bacillus subtilis subsp. subtilis str. 168
[9] = tested on: Bacillus subtilis; experiment: Antibacterial activity against Bacillus subtilis 168 M1 harboring G163A mutation in P4 motif after 24 hrs by CLSI method; format: functional
[10] = molecular target: Nucleic Acid; experiment: Binding affinity to lysine riboswitch 179 lysc of Bacillus subtilis 168 M2 harboring adenosine deletion within 95 to 97 sequence in loop E of P2 motif; format: nucleic-acid assay, Bacillus subtilis subsp. subtilis str. 168
[11] = tested on: Bacillus subtilis; experiment: Antibacterial activity against Bacillus subtilis 168 M2 harboring adenosine deletion within 95 to 97 sequence in loop E of P2 motif after 24 hrs by CLSI method; format: functional
[12] = tested on: Bacillus subtilis; experiment: Antibacterial activity against wild type Bacillus subtilis 168 1A1 assessed as inhibition of viable spore formation at 0.2 mM after 22 to 24 hrs; format: functional, subsp. subtilis str. 168 1A1
[13] = subsp. subtilis str. 168 1A1, 24 h
[14] = subsp. subtilis str. 168 M1, 24 h
[15] = subsp. subtilis str. 168 M2, 24 h

Compound `Nc1ccccc1C(=O)C[C@H](N)C(=O)O` [L-KYNURENINE] has an MIC [1, 13] of over 5 mM and a Kd [2] of over 1000 µM.
In the case of `NCCS(=O)(=O)C[C@H](N)C(=O)O`, the Activity [3] is reported as “Active”, the MIC [1, 13] is reported as 0.026 mM (≈ 5.1 µg/mL) and the Kd [4] is reported as 13 µM. The Activity [5] was 17%, the Activity [6] was 0% and the Activity [7] was “Active”. The Kd [8] was 14 µM, the MIC [9, 14] was 1560 µM (≈ 306 µg/mL) and the Kd [10] was 24 µM. For the same compound, the MIC [11, 15] was 3.44 mM (≈ 675 µg/mL), the Activity [12] was 7% and the Kd [2] was 2.5 µM.
In the case of `NCC(=O)CCC(N)C(=O)O` (racemic), the MIC [1, 13] is reported as over 5 mM, the Activity [5] is reported as 9% and the Activity [6] is reported as 47%. It also gave a Kd [2] of over 1000 µM.
`NCCSC[C@H](N)C(=O)O` was tested, and the Activity ([2]; subsp. subtilis str. 168 1A1) was “Active”.
Compound `CN[C@@H](CCCCN)C(=O)O` has an MIC [1, 13] of over 5 mM and a Kd [2] of over 1000 µM.
In the case of `NCCCC[C@H](N)C(=O)O` [LYSINE], the Activity [3] is reported as “inactive”, the MIC ([1]; subsp. subtilis str. 168 1A1) is reported as “inactive” and the Kd [4] is reported as 1.7 µM. For the same compound, the Kd [8] was 3 µM, the MIC ([9]; subsp. subtilis str. 168 M1) was “inactive” and the Kd [10] was 2.9 µM. The MIC ([11]; subsp. subtilis str. 168 M2) was “inactive” and the Kd [2] was 0.36 µM.
`N=C(N)NCCCC[C@H](N)C(=O)O` was tested, and the Activity [3] was “inactive”, the MIC [1, 13] was over 5 mM and the Kd [2] was 7 µM.
With `NCCOC[C@H](N)C(=O)O` the Activity [3] was “Active”, the MIC [1, 13] was 0.173 mM (≈ 25.6 µg/mL) and the Kd [4] was 26 µM. The Activity [5] was 65%, the Activity [6] was 6% and the Activity [7] was “Active”. For the same compound, the Kd [8] was 29 µM, the MIC [9, 14] was 1560 µM (≈ 231 µg/mL) and the Kd [10] was 75 µM. For the same compound, the MIC [11, 15] was 1.56 mM (≈ 231 µg/mL), the Activity [12] was 71% and the Kd [2] was 13 µM.
For `CC(=O)N[C@@H](CCCCN)C(=O)O`, the MIC [1, 13] was over 5 mM and the Kd [2] was over 1000 µM.
In the case of `CC(=N)NCCCC[C@H](N)C(=O)O` [L-NIL], the MIC [1, 13] is reported as over 5 mM, the Activity [7] is reported as “inactive” and the Kd [2] is reported as 11 µM.
With `C[N+](C)(C)CCCC[C@H](N)C(=O)O` [TRIMETHYLLYSINE] the MIC [1, 13] was over 5 mM and the Kd [2] was over 1000 µM.
With `CC(=O)NCCCC[C@H](N)C(=O)O` the MIC [1, 13] was over 5 mM and the Kd [2] was over 1000 µM.
In the case of `Nc1cc(C[C@H](N)C(=O)O)ccc1O`, the MIC [1, 13] is reported as over 5 mM, the Activity [6] is reported as 75% and the Kd [2] is reported as over 1000 µM.
`NC/C=C/CC(N)C(=O)O` (racemic) was tested, and the Activity [3] was “Active”, the MIC [1, 13] was 0.938 mM (≈ 135 µg/mL) and the Activity [7] was “Active”. It also gave an MIC [9, 14] of over 5000 µM, an MIC [11, 15] of over 5 mM and a Kd [2] of 0.97 µM.
